Data from patent US7112565B2, “Stabilized pharmaceutical composition in lyophilized form” (Astellas Pharma Inc., priority 1999, dated 2006).

What was measured:
[1] = Test Example 3: dependence of stability on the amount of lactose added; format: physicochemical
Method: (§1) 10 mg of Compound (II) and, as a stabilizer, 100 mg of lactose or 9 mg of sodium chloride were dissolved completely in 1 ml of water. The resulting solutions were lyophilized and maintained at 70° C. in glass vials. Nine days after, the resulting compositions were tested on their appearance, the residual amount of Compound (II), and others. As a control, used was a solution of Compound (II) without any stabilizers.
Dependence of the Stability of Lyophilized Compositions of Compound (II) upon the Amount of Lactose Added
Tests were carried out in the same manner as in Test example 1 except that 20 mg, 50 mg, 100 mg or 200 mg of lactose were added as a stabilizer. […] Incidentally, it took 15 seconds to reconstitute the compositions in 1 ml of water.

[2] = Test Example 4: stability of lyophilized compositions of 200 mg of lactose and Compound (II) in vial; format: physicochemical
Method: as §1
Stability of Lyophilized Compositions of 200 mg of Lactose and Compound (II) in Vial
Tests were carried out in the same manner as in Test Example 1 except that 12.5 mg, 25 mg, 50 mg, 75 mg or 100 mg of Compound (II) were used with 200 mg of lactose. […] Regarding all the compositions, their appearance is a white mass, the time for reconstitutional dissolution was 15 seconds, and the color and the clarity of reconstituted solutions of the compositions were colorless and transparent.

[3] = 10 mg Compound (II) + 20 mg lactose, 0 hours
[4] = 10 mg Compound (II) + 20 mg lactose, after 3 months at 40° C. and 75% humidity
[5] = 10 mg Compound (II) + 20 mg lactose, after 9 days at 70° C.
[6] = 10 mg Compound (II) + 50 mg lactose, 0 hours
[7] = 10 mg Compound (II) + 50 mg lactose, after 3 months at 40° C. and 75% humidity
[8] = 10 mg Compound (II) + 50 mg lactose, after 9 days at 70° C.
[9] = 10 mg Compound (II) + 100 mg lactose, 0 hours
[10] = 10 mg Compound (II) + 100 mg lactose, after 3 months at 40° C. and 75% humidity
[11] = 10 mg Compound (II) + 100 mg lactose, after 9 days at 70° C.
[12] = 10 mg Compound (II) + 200 mg lactose, 0 hours
[13] = 10 mg Compound (II) + 200 mg lactose, after 3 months at 40° C. and 75% humidity
[14] = 10 mg Compound (II) + 200 mg lactose, after 9 days at 70° C.
[15] = 12.5 mg Compound (II) + 200 mg lactose, 0 hours
[16] = 12.5 mg Compound (II) + 200 mg lactose, after 3 months at 40° C. and 75% humidity
[17] = 12.5 mg Compound (II) + 200 mg lactose, after 9 days at 70° C.
[18] = 12.5 mg Compound (II) + 200 mg lactose, after 21 days at 60° C.
[19] = 25 mg Compound (II) + 200 mg lactose, 0 hours
[20] = 25 mg Compound (II) + 200 mg lactose, after 9 days at 70° C.
[21] = 25 mg Compound (II) + 200 mg lactose, after 21 days at 60° C.
[22] = 50 mg Compound (II) + 200 mg lactose, 0 hours
[23] = 50 mg Compound (II) + 200 mg lactose, after 3 months at 40° C. and 75% humidity
[24] = 50 mg Compound (II) + 200 mg lactose, after 9 days at 70° C.
[25] = 50 mg Compound (II) + 200 mg lactose, after 21 days at 60° C.
[26] = 75 mg Compound (II) + 200 mg lactose, 0 hours
[27] = 75 mg Compound (II) + 200 mg lactose, after 3 months at 40° C. and 75% humidity
[28] = 75 mg Compound (II) + 200 mg lactose, after 9 days at 70° C.
[29] = 75 mg Compound (II) + 200 mg lactose, after 21 days at 60° C.
[30] = 100 mg Compound (II) + 200 mg lactose, 0 hours
[31] = 100 mg Compound (II) + 200 mg lactose, after 3 months at 40° C. and 75% humidity
[32] = 100 mg Compound (II) + 200 mg lactose, after 9 days at 70° C.
[33] = 100 mg Compound (II) + 200 mg lactose, after 21 days at 60° C.
[34] = all compositions: 12.5 to 100 mg Compound (II) + 200 mg lactose

## CCCCCOc1ccc(-c2cc(-c3ccc(C(=O)NC4CC(O)C(O)NC(=O)C5C(O)C(C)CN5C(=O)C(C(O)CC(N)=O)NC(=O)C(C(O)C(O)c5ccc(O)c(OS(=O)(=O)[O-])c5)NC(=O)C5CC(O)CN5C(=O)C(C(C)O)NC4=O)cc3)no2)cc1.[Na+] (centres unmarked) [Compound (II)]
[1]; [3]
  Clarity of reconstituted solution in 1 ml of water: Clear
  Color of reconstituted solution in 1 ml of water: Colorless
  Residual amount: 100.0%
  Total impurities: 3.44%
  Water content: 1.2%
  pH of reconstituted solution in 1 ml of water: 6.09
[1]; [4]
  Clarity of reconstituted solution in 1 ml of water: Clear
  Color of reconstituted solution in 1 ml of water: Colorless
  Residual amount: 100.0%
  Total impurities: 3.99%
  pH of reconstituted solution in 1 ml of water: 6.57
[1]; [5]
  Clarity of reconstituted solution in 1 ml of water: Not clear
  Color of reconstituted solution in 1 ml of water: White
  Residual amount: 88.09%
  Total impurities: 12.3%
  pH of reconstituted solution in 1 ml of water: 3.03
[1]; [6]
  Clarity of reconstituted solution in 1 ml of water: Clear
  Color of reconstituted solution in 1 ml of water: Colorless
  Residual amount: 100.0%
  Total impurities: 3.32%
  Water content: 0.5%
  pH of reconstituted solution in 1 ml of water: 6.57
[1]; [7]
  Appearance: White mass
  Clarity of reconstituted solution in 1 ml of water: Clear
  Color of reconstituted solution in 1 ml of water: Colorless
  Residual amount: 99.8%
  Total impurities: 4.21%
[1]; [8]
  Clarity of reconstituted solution in 1 ml of water: Clear
  Color of reconstituted solution in 1 ml of water: Colorless
  Residual amount: 96.7%
  Total impurities: 7.37%
  pH of reconstituted solution in 1 ml of water: 5.56
[1]; [9]
  Clarity of reconstituted solution in 1 ml of water: Clear
  Color of reconstituted solution in 1 ml of water: Colorless
  Residual amount: 100.0%
  Total impurities: 3.43%
  Water content: 0.3%
  pH of reconstituted solution in 1 ml of water: 6.58
[1]; [10]
  Appearance: White mass
  Color of reconstituted solution in 1 ml of water: Colorless
  Residual amount: 99.6%
  Total impurities: 3.96%
  pH of reconstituted solution in 1 ml of water: 5.80
[1]; [11]
  Clarity of reconstituted solution in 1 ml of water: Clear
  Color of reconstituted solution in 1 ml of water: Colorless
  Residual amount: 96.7%
  Total impurities: 7.08%
  pH of reconstituted solution in 1 ml of water: 6.08
[1]; [12]
  Clarity of reconstituted solution in 1 ml of water: Clear
  Color of reconstituted solution in 1 ml of water: Colorless
  Residual amount: 100.0%
  Total impurities: 3.40%
  Water content: 0.3%
  pH of reconstituted solution in 1 ml of water: 6.78
[1]; [13]
  Appearance: White mass
  Clarity of reconstituted solution in 1 ml of water: Clear
  Color of reconstituted solution in 1 ml of water: Colorless
  Residual amount: 99.6%
  Total impurities: 4.35%
  pH of reconstituted solution in 1 ml of water: 5.36
[1]; [14]
  Clarity of reconstituted solution in 1 ml of water: Clear
  Color of reconstituted solution in 1 ml of water: Colorless
  Residual amount: 96.1%
  Total impurities: 7.30%
  pH of reconstituted solution in 1 ml of water: 5.70
[1]; 10 mg Compound (II) + 20, 50, 100 or 200 mg lactose
  Time to reconstitute the compositions in 1 ml of water: 15 s
[1]; 10 mg of Compound (II) and various amount of lactose
  Stability of lyophilized compositions (conclusion from Table 3): no problem in their stability
[2]; [15]
  Residual amount: 100.0%
  Total impurities: 2.24%
  Water content: 1.3%
  pH of reconstituted solution in 5 ml of purified water: 6.63
[2]; [16]
  Residual amount: 99.6%
  Total impurities: 2.71%
  pH of reconstituted solution in 5 ml of purified water: 6.08
[2]; [17]
  Residual amount: 98.1%
  Total impurities: 3.95%
  pH of reconstituted solution in 5 ml of purified water: 6.15
[2]; [18]
  Residual amount: 97.5%
  Total impurities: 3.75%
  pH of reconstituted solution in 5 ml of purified water: 6.31
[2]; [19]
  Residual amount: 100.0%
  Total impurities: 2.25%
  Water content: 1.1%
  pH of reconstituted solution in 5 ml of purified water: 6.37
[2]; 25 mg Compound (II) + 200 mg lactose, after 3 months at 40° C. and 75% humidity
  Total impurities: 2.68%
[2]; [20]
  Residual amount: 99.3%
  Total impurities: 4.03%
  pH of reconstituted solution in 5 ml of purified water: 6.07
[2]; [21]
  Residual amount: 98.2%
  Total impurities: 3.49%
  pH of reconstituted solution in 5 ml of purified water: 6.11
[2]; [22]
  Residual amount: 100.0%
  Total impurities: 2.25%
  Water content: 1.2%
  pH of reconstituted solution in 5 ml of purified water: 6.26
[2]; [23]
  Residual amount: 100.5%
  Total impurities: 2.74%
  pH of reconstituted solution in 5 ml of purified water: 6.00
[2]; [24]
  Residual amount: 97.9%
  Total impurities: 3.95%
  pH of reconstituted solution in 5 ml of purified water: 5.99
[2]; [25]
  Residual amount: 97.3%
  pH of reconstituted solution in 5 ml of purified water: 6.00
[2]; [26]
  Residual amount: 100.0%
  Total impurities: 2.28%
  Water content: 0.9%
  pH of reconstituted solution in 5 ml of purified water: 6.13
[2]; [27]
  Residual amount: 99.0%
  Total impurities: 2.76%
  pH of reconstituted solution in 5 ml of purified water: 6.04
[2]; [28]
  Residual amount: 98.1%
  Total impurities: 4.14%
  pH of reconstituted solution in 5 ml of purified water: 5.95
[2]; [29]
  Total impurities: 3.83%
  pH of reconstituted solution in 5 ml of purified water: 5.96
[2]; [30]
  Residual amount: 100.0%
  Total impurities: 2.46%
  Water content: 1.3%
  pH of reconstituted solution in 5 ml of purified water: 6.03
[2]; [31]
  Residual amount: 99.5%
  Total impurities: 2.79%
[2]; [32]
  Residual amount: 97.8%
  Total impurities: 4.15%
  pH of reconstituted solution in 5 ml of purified water: 5.92
[2]; [33]
  Residual amount: 96.7%
  Total impurities: 3.92%
  pH of reconstituted solution in 5 ml of purified water: 5.88
[2]; [34]
  Appearance: white mass
  Clarity of reconstituted solutions: transparent
  Color of reconstituted solutions: colorless
  Time for reconstitutional dissolution: 15 s
